The source made the active and inactive calls. The calls are words filed in the database; no cut-off is given here.
Experiments:
A2780 [1] = test: Effect on cellular senescence in human A2780 cells at 0.05 to 1 uM measured after 96 hrs by beta-galactosidase staining based analysis; format: functional, cell-based; details: dose 0.05-1 µM
[2] = Toxicity in Balb/c mouse assessed as effect on liver at 100 mg/kg by H and E staining based analysis; format: organism-based; details: in vivo
A2780 [3] = test: Induction of autophagy in human A2780 cells assessed as change in MDC labeled fluorescence at upto 500 nM measured after 96 hrs by microscopic analysis; format: functional, cell-based
A2780 [4] = test: Inhibition of mitochondrial transcript in human A2780 cells assessed as decrease in COX1 expression by RT-qPCR analysis; format: functional, cell-based
A2780 [5] = test: Induction of apoptosis in human A2780 cells assessed as early apoptotic cells at 100 nM incubated for 96 hrs by Annexin-V/FITC and PI staining based flow cytometry analysis (reference value: 14.14%); format: functional
A2780 [6] = test: Inhibition of MT-ND2 expression in human A2780 cells at 100 nM incubated for 12 hrs by RNA sequencing analysis; format: functional, cell-based
A2780 [7] = test: Induction of mitochondrial morphological changes in human A2780 cells assessed as change in shape of mitochondria measured after 24 hrs by TEM analysis; format: functional, cell-based
A2780 [8] = test: Induction of cell cycle arrest in human A2780 cells assessed as accumulation of cells at G1 phase at 200 nM measured after 96 hrs by PI staining based flow cytometry analysis (reference value: 80.81%); format: functional
A2780 [9] = test: Inhibition of MT-ND4 expression in human A2780 cells at 100 nM incubated for 12 hrs by RNA sequencing analysis; format: functional, cell-based
A2780 [10] = test: Inhibition of mitochondrial transcript in human A2780 cells incubated for 12 hrs followed by compound removal and measured after 36 hrs by RT-qPCR analysis; format: functional, cell-based
A2780 [11] = test: Inhibition of MT-CO1 expression in human A2780 cells at 100 nM incubated for 12 hrs by RNA sequencing analysis; format: functional, cell-based
A2780 [12] = test: Antitumor activity against human A2780 cells xenografted in BALB/c nude mouse model assessed as reduction in beta-actin level at 100 mg/kg, po by immunoblotting analysis; format: functional, organism-based
HepG2 = test: Antiproliferative activity against human HepG2 cells incubated for 168 hrs by SRB method; format: functional, cell-based; details: HepG2, 168 h
[13] = MRT in ICR mouse at 10 mg/kg, po measured upto 24 hrs by LC-MS/MS analysis; format: ADME, organism-based; details: in vivo
A2780 [14] = test: Antitumor activity against human A2780 cells xenografted in BALB/c nude mouse model assessed as reduction in tumor weight at 100 mg/kg, po administered daily and measured after 27 days relative to control; format: functional; parameters: scale not given: the % may be the effect or the level left; details: time 27 day
NCI-H3122 = test: Antiproliferative activity against human NCI-H3122 cells incubated for 168 hrs by SRB method; format: functional, cell-based; details: NCI-H3122, 168 h
[15] = Volume of distribution at steady state in ICR mouse at 1 mg/kg, iv measured upto 24 hrs by LC-MS/MS analysis; format: ADME, organism-based; details: in vivo, read-out: Vdss
DLD-1 = test: Antiproliferative activity against human DLD-1 cells incubated for 168 hrs by SRB method; format: functional, cell-based; details: DLD-1, 168 h
A2780 [16] = test: Downregulation of UQCR level in human A2780 cells by Western blot analysis; format: functional, cell-based; details: dose <= 500.0 nM
NCI-H1975 = test: Antiproliferative activity against human NCI-H1975 cells incubated for 168 hrs by SRB method; format: functional, cell-based; details: NCI-H1975, 168 h
A2780 [17] = test: Antitumor activity against human A2780 cells xenografted in BALB/c nude mouse model assessed as effect on heart 100 mg/kg, po measured after 27 days; format: functional, organism-based; details: time 27.0 day
[18] = AUC (0 to infinity) in ICR mouse at 1 mg/kg, iv measured upto 24 hrs by LC-MS/MS analysis; format: ADME, organism-based; parameters: time < 24 hrs, dose 1 mg/kg, route iv; details: in vivo
A2780 [19] = test: Antitumor activity against human A2780 cells xenografted in BALB/c nude mouse model assessed as induction of tumor shrinkage 100 mg/kg by H and E staining based immunohistochemical analysis; format: functional, organism-based
A2780 [20] = test: Inhibition of MT-ND1 expression in human A2780 cells at 100 nM incubated for 12 hrs by RNA sequencing analysis; format: functional, cell-based
A2780 [21] = test: Inhibition of colony formation in human A2780 cells assessed as appearance of smaller colonies at upto 500 nM incubated for 14 days by crystal violet staining based analysis; format: functional, cell-based; details: time 14.0 day
A2780 [22] = test: Antitumor activity against human A2780 cells xenografted in BALB/c nude mouse model assessed as effect on liver 100 mg/kg, po measured after 27 days; format: functional, organism-based; details: time 27.0 day
A2780 [23] = test: Inhibition of MT-ND3 expression in human A2780 cells at 100 nM incubated for 12 hrs by RNA sequencing analysis; format: functional, cell-based
A2780 [24] = test: Induction of apoptosis in human A2780 cells assessed as late apoptotic cells at 50 nM incubated for 96 hrs by Annexin-V/FITC and PI staining based flow cytometry analysis (reference value: 3.79%); format: functional
A2780 [25] = test: Antitumor activity against human A2780 cells xenografted in BALB/c nude mouse model assessed as reduction in ATP5A level at 100 mg/kg, po by immunoblotting analysis; format: functional, organism-based
[26] = AUC (0 to t) in ICR mouse at 10 mg/kg, po measured upto 24 hrs by LC-MS/MS analysis; format: ADME, organism-based; parameters: dose 10 mg/kg, time < 24 hrs, route po; details: in vivo
[27] = Toxicity in Balb/c mouse assessed as effect on lung at 100 mg/kg by H and E staining based analysis; format: organism-based; details: in vivo
HeLa = test: Antiproliferative activity against human HeLa cells incubated for 168 hrs by SRB method; format: functional, cell-based
[28] = Half life in ICR mouse at 1 mg/kg, iv measured upto 24 hrs by LC-MS/MS analysis; format: ADME, organism-based; details: in vivo
Cytochrome P450 1A2 = molecular target: T1, Cytochrome P450 1A2 (Homo sapiens, UniProt P05177); test: Inhibition of CYP1A2 (unknown origin) using phenacetin as substrate in presence of NADPH by LC/MS/MS analysis; format: ADME
T1 sequence (P05177 whole entry): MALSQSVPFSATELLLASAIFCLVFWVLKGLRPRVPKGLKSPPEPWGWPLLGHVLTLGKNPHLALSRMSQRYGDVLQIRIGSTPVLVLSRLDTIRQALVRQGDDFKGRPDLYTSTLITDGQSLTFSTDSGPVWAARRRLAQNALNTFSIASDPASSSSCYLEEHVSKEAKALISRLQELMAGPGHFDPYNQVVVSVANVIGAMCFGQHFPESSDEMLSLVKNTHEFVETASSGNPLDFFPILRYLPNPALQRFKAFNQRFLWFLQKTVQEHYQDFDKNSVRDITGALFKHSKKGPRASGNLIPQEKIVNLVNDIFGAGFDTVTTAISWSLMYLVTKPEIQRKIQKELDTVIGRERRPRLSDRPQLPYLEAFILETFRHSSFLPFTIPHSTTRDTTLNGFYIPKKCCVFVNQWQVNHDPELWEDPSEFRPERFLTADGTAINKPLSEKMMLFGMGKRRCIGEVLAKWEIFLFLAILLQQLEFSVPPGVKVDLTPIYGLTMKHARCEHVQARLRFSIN

Structure (SMILES): Cc1ccc(-c2cc(=O)oc3cc(O[C@H](C)C(=O)N4CC5CCC(C4)N5C)ccc23)c(C)c1
- Activity (A2780 [1]): Active
- Activity [2]: Non-Toxic
- Activity (A2780 [3]): inactive
- inhibition (A2780 [4]): Active
- Activity (A2780 [5]): 0.28%
- inhibition (A2780 [6]): Active
- Activity (A2780 [7]): inactive
- Activity (A2780 [8]): 87.77%
- inhibition (A2780 [9]): Active
- inhibition (A2780 [10]): inactive
- inhibition (A2780 [11]): Active
- Activity (A2780 [12]): Active
- IC50 (HepG2): 152 nM
- MRT [13]: 3.3 h
- Activity (A2780 [14]): 68.66%
- IC50 (NCI-H3122): > 10000 nM
- Vd [15]: 6.4 L/kg
- IC50 (DLD-1): 69 nM
- Activity (A2780 [16]): Dose-Dependent Effect
- IC50 (NCI-H1975): 108 nM
- Activity (A2780 [17]): inactive
- AUC(0-inf) [18]: 439 ng·h/mL
- Activity (A2780 [19]): Active
- inhibition (A2780 [20]): Active
- inhibition (A2780 [21]): Active
- Activity (A2780 [22]): inactive
- inhibition (A2780 [23]): Active
- Activity (A2780 [24]): 3.17%
- Activity (A2780 [25]): Active
- AUC(0-t) at 24 h [26]: 1830 ng·h/mL
- Activity [27]: Non-Toxic
- IC50 (HeLa): 832 nM
- half-life [28]: 3.12 h
- IC50 (Cytochrome P450 1A2): > 40000 nM

Source: ChEMBL document CHEMBL5380844, “Discovery of a Novel, Potent, Orally Active, and Safe Inhibitor Targeting Human Mitochondrial RNA Polymerase” (J Med Chem, 2023)
